Usually Kd stands for the free concentration of one partner at which half of the binding sites on the other are occupied at equilibrium, for simple one-to-one binding.

Among the data in publication PMC4529485 (Biochemistry, 2010) are Kd values, retold here.

This assay concerns the target myeloperoxidase (MPO) (Homo sapiens, UniProt P05164). In words: flash photolysis/recombination kinetics. Type of assay: binding.

Chain of myeloperoxidase (MPO) (P05164 165-273): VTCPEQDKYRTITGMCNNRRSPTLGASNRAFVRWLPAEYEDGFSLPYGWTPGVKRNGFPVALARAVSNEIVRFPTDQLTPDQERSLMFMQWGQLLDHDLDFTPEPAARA
Chain of myeloperoxidase (MPO) (P05164 279-745): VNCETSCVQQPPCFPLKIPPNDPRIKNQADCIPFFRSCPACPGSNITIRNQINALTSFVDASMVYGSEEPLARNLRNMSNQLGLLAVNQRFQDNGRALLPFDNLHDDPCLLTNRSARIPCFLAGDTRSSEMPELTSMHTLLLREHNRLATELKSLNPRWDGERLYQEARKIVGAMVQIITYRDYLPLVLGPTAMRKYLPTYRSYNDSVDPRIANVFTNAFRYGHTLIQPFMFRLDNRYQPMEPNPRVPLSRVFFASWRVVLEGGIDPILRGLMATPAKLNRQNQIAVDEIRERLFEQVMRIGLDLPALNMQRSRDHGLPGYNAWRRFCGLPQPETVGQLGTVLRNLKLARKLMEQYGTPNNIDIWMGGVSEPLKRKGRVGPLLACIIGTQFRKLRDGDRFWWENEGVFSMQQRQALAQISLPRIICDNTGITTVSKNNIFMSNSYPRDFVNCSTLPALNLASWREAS

Regarding `[C-]#[O+]` [CO], the Kd was 1.6 mM.
